Reference: paper PMC12233266, “Loss of serine/threonine protein phosphatase 6 severely impairs sexual stage development in malaria parasite Plasmodium berghei” (PLOS Pathogens, 2025)

Molecular target: T1, Ser/Thr protein phosphatase 6 (PbPP6) (Plasmodium berghei, UniProt A0A509AFY8)
T1 construct: gene PBANKA_0412100; full-length PbPP6 (308 aa), C-terminal His tag, expressed in Pichia GS115 (rPbPP6)
T1 sequence (A0A509AFY8 1-308): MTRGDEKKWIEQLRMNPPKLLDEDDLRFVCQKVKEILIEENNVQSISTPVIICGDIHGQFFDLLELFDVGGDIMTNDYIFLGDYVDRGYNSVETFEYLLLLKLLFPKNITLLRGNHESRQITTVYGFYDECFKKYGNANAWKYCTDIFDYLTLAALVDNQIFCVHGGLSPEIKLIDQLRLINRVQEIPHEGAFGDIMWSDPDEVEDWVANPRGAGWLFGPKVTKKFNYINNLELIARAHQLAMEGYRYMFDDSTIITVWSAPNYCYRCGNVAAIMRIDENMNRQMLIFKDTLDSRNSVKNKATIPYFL
Assay: ProFluor Ser/Thr PPase fluorescence assay (R110 substrate) with purified recombinant enzyme, dose-response
Format: biochemical

SMILES: C=C1[C@@H](O)[C@@H]2O[C@]3(CC[C@H](/C=C/[C@@H](C)[C@@H]4CC(C)=C[C@@]5(O[C@H](C[C@@](C)(O)C(=O)O)CC[C@H]5O)O4)O3)CC[C@H]2O[C@@H]1[C@@H](O)C[C@H](C)[C@H]1O[C@@]2(CCCCO2)CC[C@H]1C [OKA, okadaic acid]
- IC50: 0.86 nM
